Measured values: US20060151574A1, “Formulations useful against hepatitis C virus infections” (priority 2002, published 2006)
pEC50: −log10 of the molar value.

How the values were obtained:
HCV replicon cell lines = test: HCV replicon cell lines: HCV RNA by Northern Blotting, NS5a by Western Blotting; format: cell-based, Hepatitis C virus
Source text: The only reliable experimental animal HCV infection studies have been performed with chimpanzees. So far, there is no simple cell culture infection system available or HCV. Although a number of reports have been published describing in vitro propagation attempts of HCV in primary cells and cell lines, questions remain concerning reproducibility, low levels of expression and properly controlled detection methods (reviewed in J. Gen Virol. 81, 1631; Antiviral Chemistry and Chemotherapy 10, 99). Thus, the replicon system described by Bartenschlager and coworkers (Lohmann et al, Replication of subgenomic hepatitis C virus RNAs in a hepatoma cell line. Science 285, 110. 1999) was used for the studies disclosed herein. This replicon system reproduces a crucial part of the HCV replication cycle which is used as a system for simulating HCV infection. Bartenschlager's group produced bicistronic recombinant RNAs, so-called “replicons”, which carry the neomycin-phosphotransferase (NPT) gene as well as a version of the HCV genome where the sequences for the structural HCV proteins were deleted. After transfection of the subgenomic HCV RNA molecules into the human hepatoma cell line HuH-7, cells supporting efficient RNA-dependent RNA replication of the HCV replicons were selected based on co-amplification of the NPT gene and resulting resistance to the antibiotic G-418. Integration of coding information into the cellular genome was an exclusion criteria for functional replicons. Several lines were established from G-418 resistant clones with autonomously replicating HCV RNAs detectable by Northern Blotting.
Possible influences and/or dependencies of HCV's RNA-dependent RNA replication and nonstructural proteins on host cell transcription are accessible to analysis with the Clontech cDNA arrays used in the methods described herein. HuH-pcDNA3 cells are HuH7 cells resistant to G-418 by integration of a NPT gene-carrying plasmid (pcDNA3, Invitrogen) and serve as negative control. Three replicon lines were analyzed for changes in cellular RNA expression patterns compared to the control line: • HuH-9-13: cell line with persistant replicon IRES377/NS3-3′/wt, described in Science 1999, 285, 110-113, • HuH-5-15: cell line with persistant replicon IRES389/NS3-3′/wt, described in Science 1999, 285, 110-113, • HuH-11-7: cell line with persistant replicon IRES377/NS2-3′/wt, described in Science 1999, 285, 110-113.
(§1) Moreover, as model system for HCV replication there were utilized three replicon cell lines provided by Prof. R. Bartenschlager (University of Heidelberg, FRG). Cultures were treated for various periods of time with all bans retinoic acid (RA) for comparative purposes and the other agents selenium, selenium salts, Vitamin D3 and retinoids, like 9-cis retinoic acid, C1-C10 alkyl esters of 9-cis retinoic acid, C1-C10 alkyl amides of 9-cis retinoic add, N-(4-hydroxyphenyl)retinamide (4-HPR) and 6-[3-(1-adamantyl)+hydroxyphenyl]-2-naphthalene carboxylic acid (CD437; AHPN) (obtained from Sigma). Levels of expression of GI-GPx was measured on protein level by Western Blotting using antibodies provided by Prof. Brigelius-Flohe (University of Potsdam, FRG) and on RNA level by Northern blotting using GI-GPx-specific oligonucleotides as probes. Levels of HCV RNA were investigated by Northern Blotting using a DNA oligonucleotide complementary to the neomycin phosphotansferase gene as probe. Concentration of the viral protein NS5a was determined by Western Blotting with an NS5a-specific antibody (Biogenesis, UK).

RAR = test: Ligands for nuclear receptors: effector concentration; format: biochemical; details: read-out: EC50 (effector concentration, concentration showing 50% effect)
[1] = system: nuclear receptors (RAR, RXR); test: Ability to act as ligands for nuclear receptors; format: binding
PKR mRNA = PKR mRNA levels by Northern blotting (interferon response); format: cell-based, human
Source text: In the course of retinoic acid studies it was investigated whether the RA-effect may also be mediated by activating an interferon response. A typical interferon-inducible gene codes for the double-stranded RNA-dependent protein kinase (PKR).

replicon cells = test: Cytotoxic effects on replicon cells
interferon receptors = test: Expression of interferon receptors in replicon cells by western Blotting; format: cell-based, human
GI-GPx = GI-GPx expression in replicon cells (Western / Northern blotting); format: cell-based, human
Protocol: as §1

[2] = 1 μM, seven days, depending on the cell line
[3] = HCV replicon cell lines, FIG. 1 Panel A
[4] = replicon cells, 1 μM, three days
[5] = six days, in the presence of selenium or a selenium salt like sodium selenite

## C/C(=C\c1ccc(C(=O)O)cc1)c1ccc2c(c1)C(C)(C)CCC2(C)C [TTNPB]
HCV replicon cell lines
  Effect on Replication: +++
RAR
  pEC50: […]
[1]
  Receptor(s): RAR

## CC1=C(/C=C/C(C)=C/C=C/C(C)=C/C(=O)O)C(C)(C)CCC1 [ATRA, all trans retinoic acid]
HCV replicon cell lines
  Effect on Replication: +++
HCV replicon cell lines; [2]
  expression of subgenomic HCV RNA downregulated: two- to five-fold
  expression of viral protein NS5a downregulated: two- to five-fold
HCV replicon cell lines; [3]
  HCV RNA: suppression
  NS5a protein expression: suppression
HCV replicon cell lines; in the presence of RA, FIG. 2 center Panel
  HCV down-regulation by IFN alpha: slightly enhanced
HCV replicon cell lines; [4]
  effect on HCV expression: hardly an effect
HCV replicon cell lines; [5]
  reduction of HCV-NS5a protein: two- to five-fold
  reduction of HCV-RNA: two- to five-fold
PKR mRNA
  transcription of PKR: did not induce
PKR mRNA; mock-transfected HuH7 cells (pcDNA3) and replicon cell lines, ATRA 1 μM, IFN as control, FIG. 1 Panel C
  PKR mRNA levels: no up-regulation
Replicon cells; [5]
  toxic effects: absence of toxic effects
[1]
  Receptor(s): RAR
Interferon receptors
  interferon receptors on protein level: no up-regulation
GI-GPx; 1 μM, seven days of incubation
  up-regulation of GI-GPx on RNA- and protein level: three- to ten-fold
GI-GPx; HCV replicon cell lines, FIG. 1 Panel B
  GI-GPx gene expression: up-regulation
GI-GPx; [4]
  effect on GI-GPx expression: hardly an effect
GI-GPx; replicon cells, six days
  upregulation of GI-GPx RNA and protein: upregulation

## CC1=C(/C=C/C(C)=C\C=C\C(C)=C\C(=O)O)C(C)(C)CCC1 [9-cis RA, 9-cis retinoic acid]
HCV replicon cell lines
  Effect on Replication: +++
  reducing HCV load: capable of reducing HCV load
HCV replicon cell lines; first preliminary result
  downregulate HCV RNA, compared with all trans retinoic acid alone: significantly better

## CC1(C)CCC(C)(C)c2cc(C(=O)Nc3ccc(C(=O)O)cc3)ccc21 [AM-580, (4-[5,6,7,8-tetrahydro-5,5,8,8-tetramethyl-2-naphtalenyl)carbox-amido]benzoic acid]
HCV replicon cell lines
  Effect on Replication: ++
[1]
  Receptor(s): RARα/not RXR

## COC(C)(C)CCCC(C)C/C=C/C(C)=C/C(=O)O (stereo not drawn) [Methoprene acid, 11-methoxy-3,7,11-trimethyl-2E,4E-dodecadienoic acid]
HCV replicon cell lines
  Effect on Replication: −
[1]
  Receptor(s): RXR

## CC1=C(/C=C/C(C)=C/C=C/C(C)=C/C(=O)Nc2ccc(O)cc2)C(C)(C)CCC1 [4-HPR, N-(4-hydroxyphenyl)retinamide]
HCV replicon cell lines
  Effect on Replication: ++
[1]
  Receptor(s): RAR

## CC1=C(/C=C/C(C)=C/C=C/C(C)=C\C(=O)O)C(C)(C)CCC1 [13-cis RA, 13-cis retinoic acid]
HCV replicon cell lines
  Effect on Replication: +++

## O=[Se](O)O [sodium selenite]
Replicon cells; substance alone
  Severe cytotoxic effects: neither observed

## C=C1CC[C@H](O)C/C1=C/C=C1\CCC[C@]2(C)[C@@H]([C@H](C)CCCC(C)C)CC[C@@H]12 [Vitamin D3]
HCV replicon cell lines
  reducing HCV load: capable of reducing HCV load
